For series [1], the system named is western flower thrips. The experiment in a line: whole plant or invertebrate. The class given is in vivo. Conditions: Frankliniella occidentalis, foliar. A digest of the protocol:
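Bean leaf discs sprayed with compound in 50% acetone/water with 0.05% Tween 20, air dried, then infested with first-instar larvae. Held at 25° C under 16 h light/8 h dark; live and dead counted after 3 days to give % mortality, two replicates.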

In series [2] the test system is small brown planthopper. Nature of the series: whole plant or invertebrate. The class given is in vivo. Conditions: Laodelphax striatellus, foliar. The method, then: (§1) Rice seedlings grown in pots were subjected to the foliar application of solutions of the inventive compounds at a predetermined concentration prepared to 50% acetone/water (containing 0.05% Tween 20). The treated seedlings were air dried, following which second-instar larvae were released onto the seedlings. The seedlings and larvae were then held in an incubation chamber at 25° C. (16-hour period of light, 8-hour dark period). Three days after released, the numbers of live and dead insects were counted, and the mortality was calculated from the following formula. This was a two-replication test. Mortality (%)=[number of dead insects/(number of live insects+number of dead insects)]×100

The test system of series [3] is house fly. Nature of the series: House fly control test (local application). The class given is in vivo. Also noted: dose or concentration left out as unconfirmed. The method, then:
The inventive compounds prepared to a predetermined concentration in acetone were applied in an amount of 1 μL (per insect) to the backs of adult female flies raised indoors. Following chemical treatment, the flies were transferred to plastic cups, with five flies being placed in each cup, and held in an incubation chamber at 25° C. (16-hour period of light, 8-hour dark period). Twenty-four hours after treatment, the state of knockdown among the flies was observed, and the knockdown rate was calculated from the following formula. The test was carried out as two replications. Knockdown rate (%)=[number of knocked down insects/(number of live insects+number of knocked down insects)]×100

Series [4] relates to common cutworm. The experiment in a line: whole plant or invertebrate. The class given is in vivo. Conditions: for Insecticidal effects (mortality), common cutworm third-instar larvae: foliar application. A digest of the protocol: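 Cabbage leaf discs (5.0 cm) sprayed with compound at a set concentration in 50% acetone/water with 0.05% Tween 20, air dried, then infested with third-instar larvae. Held at 25° C., 16 h light/8 h dark; dead and live larvae counted after 3 days, two replicates, mortality (%) = dead/(live+dead)×100.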

The test system of series [5] is rice water weevil. Nature of the series: Rice water weevil control test (soil drenching treatment). The class given is in vivo. The following applies: 0.1 mg/seedling soil drenching of rice seedlings, adults, 3 days after release. How it is done: Rice seedlings grown in pots were subjected to soil drenching treatment with solutions of the inventive compounds at a predetermined concentration prepared to 10% acetone/water. Two days after treatment, five adult rice water weevils were released onto each seedling. The seedlings and insects were then held in an incubation chamber at 25° C. (16-hour period of light, 8-hour dark period). Three days after released, the numbers of live and dead insects were counted, and the mortality was calculated from the following formula. The test was carried out as two replications. Mortality (%)=[number of dead insects/(number of live insects+number of dead insects)]×100

Series [6] concerns Haemaphysalis longicornis. The experiment in a line: Tick (Haemaphysalis longicornis) control test on body surface of mouse. It counts as in vivo, Haemaphysalis longicornis on mice (ICR). The following applies: 20 μL of 1,000-fold dilution of agent prepared as in Formulation Example 11 on mouse body surface, larval ticks, 3 days after release. How it is done: Ventral fur was shaved from an area having a diameter of about 2 cm in mice (ICR, 5-week-old males), and a 15 mL polystyrene conical tube cut to a length of about 1.5 cm was attached to the shaved area using instant glue.
An amount of 20 μL of a 1,000-fold dilution of the pest control agent prepared in the same way as in Formulation Example 11 was added dropwise onto the body surface of the mice within the attached tube. After the solution was allowed to dry thoroughly, ten or more larval ticks (Haemaphysalis longicornis) were released into the tube, which was then capped. Three days after released, the numbers of live and dead ticks were counted, and the mortality was calculated from the following formula. Blood-feeding inhibition (%)=100−[number of feeding ticks/(number of live ticks+number of dead ticks)]×100

For series [7], the system named is green rice leafhopper. Nature of the series: Green rice leafhopper control test (foliar application). It counts as in vivo. The following applies: Nephotettix cincticeps, 96 h. How it is done:
as §1, with “Four” for “Three”

The subject of series [8] is green peach aphid. The experiment in a line: Green peach aphid control test (foliar application). The class given is in vivo. Conditions: Myzus persicae, in Brassica oleracea, 72 h. An excerpt: Leaf discs 2.8 cm in diameter were cut from cabbage plants grown in pots, and four adult aphids were released onto each disc. One day later, the adults were removed, and the number of first-instar larvae that had been deposited on each leaf disc was adjusted to 10. Next, the leaf discs parasitized by these first instar larvae were sprayed with solutions of the inventive compounds at a predetermined concentration prepared to 50% acetone/water (containing 0.05% Tween 20). The treated leaf discs were air dried, following which covers were placed over the Petri dishes and the leaf discs and larvae were held in an incubation chamber at 25° C. (16-hour period of light, 8-hour dark period). Three days after released, the numbers of live and dead insects were counted, and the mortality was calculated from the following formula. This was a two-replication test. Mortality (%)=[number of dead insects/(number of live insects+number of dead insects)]×100

Where [9] appears, read: read-out: Insecticidal effects (mortality), western flower thrips first-instar larvae.
[10] abbreviates: read-out: Insecticidal effects (mortality), small brown planthopper second-instar larvae.

Read-outs that look alike come from different tables or passages of the source.

For orientation: mortality means the percentage killed. On to `O=C(N=c1ccccn1Cc1ccc(Cl)nc1)C(F)(F)F` [Compound 212, N-[1-((6-chloropyridin-3-yl)methyl)pyridin-2(1H)-ylidene]-2,2,2-trifluoroacetamide], for which the mortality at 100 ppm in series [1] (72 h) is at least 80%; in series [1] (setting [9]), 100%; in series [2] (in Oryza sativa, 72 h) it was at least 80%; in series [7], at least 80%; in series [8], at least 80%. Besides, the mortality at 500 ppm in series [1] (72 h) was at least 80%; in series [1] (setting [9]), 100%; in series [4] (foliar, 72 h) it was at least 80%. Also, in series [1] (setting [9]), the mortality at 20 ppm was found to be 65%. The mortality at 0.313 ppm in series [2] (setting [10]) amounted to 75%. In addition, the mortality at 1.25 ppm in series [2] (setting [10]) is 100%. The mortality at 5 ppm in series [2] (setting [10]) was determined as 100%. The “Insecticidal effects (mortality), adult houseflies” value in series [3] stood at 100. Also, the results for the “Insecticidal effects (mortality), common cutworm third-instar larvae” value in series [4] (100 ppm) and in series [4] (500 ppm) were 30 and 100, respectively. In addition, the Mortality result in series [5] is given as “at least 80%”. For the same compound, the Blood-feeding inhibition in series [6] is 91%.

For the origin of these results see US10085449B2, “N-[1-((6-chloropyridin-3-yl)methyl)pyridin-2(1H)-ylidene]-2,2,2- trifluoroacetamide for control of agricultural/horticultural pests” (priority 2010, dated 2018).
